These are literature values, as cited in patent publication US11179370B2, “Cannabinoid receptor antagonists/inverse agonists useful for treating disease conditions, including metabolic disorders and cancers” (Jenrin Discovery, LLC, priority 2012, dated 2021).

The conditions of the data set: type 2 diabetes patients without other anti-diabetic medication, after six months of treatment, baseline value 7.9.

For the compound `Cc1c(C(=O)NN2CCCCC2)nn(-c2ccc(Cl)cc2Cl)c1-c1ccc(Cl)cc1` [rimonabant], the HbA1c levels lowered was 0.8%.
